In patent publication US20250034182A1, “PHOSPHOLIPID COMPOUNDS AND METHODS OF MAKING AND USING THE SAME” (priority 2021, published 2025):

How the values were obtained:
Format in all cases: cell-based
[1] = RSV HEP2-CC50-384-V2 (per Ex. V); details: human
[2] = RSV NHBE CC50 384 V2 (per Ex. U); details: human
[3] = test system: Respiratory syncytial virus recombinant with luciferase (RSV-Luc5) in HEp-2 cells; experiment: HEp-2 RSV-Luc5 384-well assay (EC50 RSVFLUC Hep2-384 v2, Example V); details: human respiratory syncytial virus, HEp-2, 72 h, read-out: RSV Hep-2 FLuc EC50 (v2) (nM) (per Ex. V)
Source text: HEp-2 cell line was purchased from ATCC (Manassas, VA Cat #CCL-23) and maintained in Dulbecco's […] (DMEM) (Corning, New York, NY, Cat #15-018CM) supplemented with 10% fetal bovine serum (FBS) (Hyclone, Logan, UT, Cat #SH30071-03) and 1× Penicillin-Streptonycin-L-Glutamine (Corning, New York, NY, Cat #30-009-CI). Cells were passaged 2 times per week to maintain sub-confluent densities and were used for experiments at passage 5-20. Respiratory syncytial virus recombinant with luciferase (RSV-Luc5) (≥1×107 TCID50/ml) was purchased from Microbiologics (Saint Cloud, MN). Viral replication was determined in HEp-2 cells in the following manner.
(§1) Compounds are prepared in 100% DMSO in 384-well polypropylene plates (Greiner, Monroe, NC, Cat #784201) with 8 compounds per plate in grouped replicates of 4 at 10 serially diluted concentrations (1:3). The serially diluted compounds were transferred to low dead volume Echo plates (Labcyte, Sunnyvale, CA, Cat #LP-0200).
The test compounds were spotted to 384-well assay plates (Greiner, Monroe, NC, Cat #781091) at 200 nL per well. HEp-2 cells were harvested and suspended in DMEM (supplemented with 10% FBS and 1× Penicillin-Streptomycin-L-Glutamine) and seeded to the pre-spotted assay plates at 4,000 cells per well in 30 μL. RSV-Luc5 viruses were diluted in DMEM (supplemented with 10% FBS and 1× Penicillin-Streptomycin-L-Glucamine) at 200,000 Infectious Units (IU) per mL and 10 μL per well was added to the assay plates containing cells and compounds, for an MOI=0.5. The assay plates were incubated for 3 days at 37° C. and 5% CO2. At the end of incubation, One-Glo reagent (Promega, Madison, WI, Cat #E6120) was prepared. The assay plates and One-Glo reagent were equilibrated to room temperature for at least 15 minutes. 40 μL per well of One-Glo reagent was added and the plates were incubated at room temp for 15 minutes before reading the luminescence signal on an EnVision multimode plate reader (Perkin Elmer, Waltham, MA). Remdesivir was used as positive control and DMSO was used as negative control. Values were normalized to the positive and negative controls (as 0% and 100% replication, respectively) and data was fitted using non-linear regression analysis by Gilead's dose response tool. The EC50 value for each compound was then determined as the concentration reducing the viral replication by 50%.

[4] = test system: Respiratory syncytial virus recombinant with luciferase (RSV-Luc5) in NHBE cells; experiment: NHBE RSV-Luc5 384-well assay (EC50 RSVFLUC NHBE-384, Example U); details: human respiratory syncytial virus, 72 h, read-out: RSV FLuc NHBE 384 EC50 (v2) (nM) (per Ex. U)
Method: Normal Human Bronchial Epithelial (NHBE) cells were purchased from Lonza (Walkersville, MD Cat #CC2540) and maintained in BEGM Bronchial Epithelial Cell (Growth Medium BulletKit (Lonza CC-3170).
Cells were thawed, expanded, and were used for experiments at passage 2. Respiratory syncytial virus recombinant with luciferase (RSV-Luc5) (≥1×10^7 Infectious Units/ml (IU/ml) determined by TCID50) was purchased from Microbiologics (Saint Cloud, MN). Viral replication was determined in NHBE cells in the following manner.
as §1
The test compounds were spotted to 384-well assay plates (Greiner, Monroe, NC, Cat #781091) at 200 nL per well. NHBE cells were harvested and suspended in BEGM Bronchial Epithelial Cell Growth Medium BulletKit and seeded to the pre-spotted assay plates at 5,000 cells per well in 30 μL. RSV-Luc5 virus was diluted in BEGM Bronchial Epithelial Cell Growth Medium BulletKit at 500,000 Infectious Units (IU) per mL and 10 μL per well was added to the assay plates containing cells and compounds, for an MOI of 1. The assay plates were incubated for 3 days at 37° C. and 5% CO2. At the end of incubation, One-Glo reagent (Promega, Madison, WI, Cat #E6120) was prepared. The assay plates and One-Glo reagent were equilibrated to room temperature for at least 15 minutes. 40 μL per well of One-Glo reagent was added and the plates were incubated at room temperature for 15 minutes before reading the luminescence signal on an EnVision multimode plate reader (Perkin Elmer, Waltham, MA). Remdesivir was used as positive control and DMSO was used as negative control. Values were normalized to the positive and negative controls (as 0% and 100% replication, respectively) and data was fitted using non-linear regression analysis by Gilead's dose response tool. The EC50 value for each compound was defined as the concentration reducing the viral replication by 50%.

SMILES	CC50 at 3 days [1] [nM]	CC50 at 3 days [2] [nM]	EC50 [3] [nM]	EC50 [4] [nM]	CC50 at 3 days ([1]; HEp-2 cells, 384-well, read-out: RSV HEP2-CC50-384-V2 (nM) (per Ex. V))	CC50 at 3 days ([2]; NHBE cells, 384-well, read-out: RSV NHBE CC50 384 V2 (nM) (per Ex. U))
CCCCCCCCCCCCCCCCOC[C@@H](COP(=O)(O)OC[C@@]1(C#N)O[C@@H](c2ccc3c(N)ncnn23)[C@H](O)[C@@H]1O)OCc1ccccc1 [Compound 92, ((2R,3S,4R,5S)-5-(4-aminopyrrolo[2,1-f][1,2,4]triazin-7-yl)-2-cyano-3,4-dihydroxytetrahydrofuran-2-yl)methyl ((S)-2-(benzyloxy)-3-(hexadecyloxy)propyl) hydrogen phosphate]	> 50000	9560	194	47	–	–
CCCCCCCCCCCCC[C@@H](COP(=O)(O)OC[C@@]1(C#N)O[C@@H](c2ccc3c(N)ncnn23)[C@H](O)[C@@H]1O)OCc1cc(F)cc(C#N)c1 [Compound 97, ((2R,3S,4R,5S)-5-(4-aminopyrrolo[2,1-f][1,2,4]triazin-7-yl)-2-cyano-3,4-dihydroxytetrahydrofuran-2-yl)methyl ((S)-2-((3-cyano-5-fluorobenzyl)oxy)pentadecyl) hydrogen phosphate]	–	–	1490	45	> 43900	3910
CCCCCCCCCCCCCCCCCC[C@@H](COP(=O)(O)OC[C@@]1(C#N)O[C@@H](c2ccc3c(N)ncnn23)[C@H](O)[C@@H]1O)Oc1cc(F)cc(C#N)c1 [Compound 96, ((2R,3S,4R,5S)-5-(4-aminopyrrolo[2,1-f][1,2,4]triazin-7-yl)-2-cyano-3,4-dihydroxytetrahydrofuran-2-yl)methyl ((S)-2-(3-cyano-5-fluorophenoxy)icosyl) hydrogen phosphate]	> 38100	5240	368	67	–	–
CCCCCCCCCCCCCCCCCCOC[C@](C)(COP(=O)(O)OC[C@@]1(C#N)O[C@@H](c2ccc3c(N)ncnn23)[C@H](O)[C@@H]1O)OCc1cc(F)cc(C#N)c1 [Compound 94, ((2R,3S,4R,5S)-5-(4-aminopyrrolo[2,1-f][1,2,4]triazin-7-yl)-2-cyano-3,4-dihydroxytetrahydrofuran-2-yl)methyl ((R)-2-((3-cyano-5-fluorobenzyl)oxy)-2-methyl-3-(octadecyloxy)propyl) hydrogen phosphate]	> 50000	16000	339	59	–	–
CCCCCCCCCCCCCCCCCC[C@@H](COP(=O)(O)OC[C@@]1(C#N)O[C@@H](c2ccc3c(N)ncnn23)[C@H](O)[C@@H]1O)OCc1cc(Cl)cc(C#N)c1 [Compound 87, ((2R,3S,4R,5S)-5-(4-aminopyrrolo[2,1-f][1,2,4]triazin-7-yl)-2-cyano-3,4-dihydroxytetrahydrofuran-2-yl)methyl ((S)-2-((3-chloro-5-cyanobenzyl)oxy)icosyl) hydrogen phosphate]	> 34800	3450	443	133	–	–
CCCCCCCCCCCCCCCCOC[C@@H](COP(=O)(O)OC[C@@]1(C#N)O[C@@H](c2ccc3c(N)ncnn23)[C@H](O)[C@@H]1O)OCc1cc(Cl)cc(C#N)c1 [Compound 98, ((2R,3S,4R,5S)-5-(4-aminopyrrolo[2,1-f][1,2,4]triazin-7-yl)-2-cyano-3,4-dihydroxytetrahydrofuran-2-yl)methyl ((S)-2-((3-chloro-5-cyanobenzyl)oxy)-3-(hexadecyloxy)propyl) hydrogen phosphate]	–	2900	34	11	–	–
CCCCCCCCCCCCCCCCCCOC[C@H](COP(=O)(O)OC[C@@]1(C#N)O[C@@H](c2ccc3c(N)ncnn23)[C@H](O)[C@@H]1O)Oc1ccc(C#N)nc1 [Compound 24]	–	937	–	4	–	–
CCCCCCCCCCCCCC[C@@H](COP(=O)(O)OC[C@@]1(C#N)O[C@@H](c2ccc3c(N)ncnn23)[C@H](O)[C@@H]1O)OCc1cc(F)cc(C#N)c1 [Compound 86, ((2R,3S,4R,5S)-5-(4-aminopyrrolo[2,1-f][1,2,4]triazin-7-yl)-2-cyano-3,4-dihydroxytetrahydrofuran-2-yl)methyl ((S)-2-((3-cyano-5-fluorobenzyl)oxy)hexadecyl) hydrogen phosphate]	> 50000	2900	546	25	–	–
CCCCCCCCCCCCCCCCCC[C@@H](COP(=O)(O)OC[C@@]1(C#N)O[C@@H](c2ccc3c(N)ncnn23)[C@H](O)[C@@H]1O)OCc1ccccc1 [Compound 93, ((2R,3S,4R,5S)-5-(4-aminopyrrolo[2,1-f][1,2,4]triazin-7-yl)-2-cyano-3,4-dihydroxytetrahydrofuran-2-yl)methyl ((S)-2-(benzyloxy)icosyl) hydrogen phosphate]	> 50000	8140	3060	663	–	–
CCCCCCCCCCCCCCCCCCC[C@H](COP(=O)(O)OC[C@@]1(C#N)O[C@@H](c2ccc3c(N)ncnn23)[C@H](O)[C@@H]1O)Oc1ccc(C#N)c(F)c1 [Compound 85, ((2R,3S,4R,5S)-5-(4-aminopyrrolo[2,1-f][1,2,4]triazin-7-yl)-2-cyano-3,4-dihydroxytetrahydrofuran-2-yl)methyl ((R)-2-(4-cyano-3-fluorophenoxy)henicosyl) hydrogen phosphate]	> 50000	1440	93	11	–	–
